Assay results taken from paper PMC4180279 (Biochemistry, 2014).
No end group written: not given here.

Columns and labels:
NCS-1 = molecular target: T1, NCS-1 (Homo sapiens, UniProt P62166); experiment: Isothermal titration calorimetry, NCS-1 titrated into PQIQ peptide; format: binding; conditions: 100 μM PQIQ in cell, 1 mM NCS-1 in syringe, 25 °C, pH 7.5; complex aggregates
T1 construct: His tag (TEV-cleavable) (N, cleaved yes); made in house; host or cells: Escherichia coli BL21(DE3)
Protocol: The peptide used corresponds to residues 1903–1929 of the human P/Q receptor. The synthetic P/Q peptide, […] (hereafter termed the PQIQ peptide), was purchased from GenicBio. The peptide was delivered >95% pure.
Expression was induced overnight at 18 °C; cells were harvested, resuspended into lysis buffer [50 mM Tris-HCl (pH 7.5), 200 mM NaCl, 5 mM CaCl2, and Complete EDTA Free Protease Inhibitor (Roche Applied Science)], lysed, centrifuged, filtered, and loaded onto the Hiprep 16/10 Phenyl FF High Sub (GE Healthcare) column that was pre-equilibrated with buffer A [50 mM Tris-HCl (pH 7.5), 200 mM NaCl, and 5 mM CaCl2]. The column was extensively washed with buffer A and NCS-1 eluted using Milli-Q water. […] The purity of the sample was assessed by sodium dodecyl sulfate–polyacrylamide gel electrophoresis (SDS–PAGE) and deemed to be >95% pure. The eluted peak was concentrated and stored at −80 °C.
(§1) ITC experiments were performed using a MicroCal ITC200 instrument. […] If necessary, minor adjustments were made to the pH of the peptide solution. […] One injection of 0.2 μL, followed by 20 injections of 2 μL, was made with a 180 s spacing to allow the baseline to return after each injection. All experiments were performed in triplicate. The data were analyzed with a one-site (three-parameter) curve fitting conducted using the MicroCal-supported ITC module within Origin version 7.

[1] = Solubility / aggregation observed in ITC experiments; format: physicochemical; conditions: limits use of peptide as titrant in ITC; 50 mM Tris (pH 7.5), 50 mM NaCl, 5 mM CaCl2
Protocol: as §1

T1 sequence (P62166 whole entry, species assumed): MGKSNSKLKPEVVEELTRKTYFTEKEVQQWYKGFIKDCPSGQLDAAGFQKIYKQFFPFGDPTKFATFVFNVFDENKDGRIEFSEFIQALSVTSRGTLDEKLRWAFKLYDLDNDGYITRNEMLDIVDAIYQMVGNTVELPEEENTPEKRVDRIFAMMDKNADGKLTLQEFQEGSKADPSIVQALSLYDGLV

solubility [1]: limitations in PQIQ peptide solubility
Sequence: TVGKIYAAMMIMEYYRQSKAKKLQAMR [PQIQ peptide]
equilibrium binding constant (NCS-1): not possible to obtain reliable equilibrium binding constants
